Test results published in article PMC10111413 (ACS Infectious Diseases, 2023).

Legend:
[1] = tested on: colistin-resistant A. baumannii isolate BV94; assay: G. mellonella larvae infection model; type: in vivo; conditions: injected 1 h postinfection, 10^5 cfu A. baumannii BV94 per larva, ten larvae per group, 37 °C
Text: Given the promising in vitro activity of relacidamide (5), along with its high serum stability, low hemolytic activity, and ease of synthesis, we further evaluated its efficacy in an established in vivo infection model using G. mellonella larvae. The G. mellonella infection model has gained popularity in recent years and provides a convenient method to assess the in vivo effectiveness and toxicity of novel antibiotics.[15],[16] […] The larvae were first injected with either vehicle (PBS) or A. baumannii BV94 suspension in the right second proleg. The moth larvae were then injected in the left second proleg with either PBS (untreated), colistin at 100 mg/kg or 200 mg/kg, or relacidamide (5) at 100 mg/kg or 200 mg/kg. The G. mellonella larvae were then incubated for 72 h, and their survival was assessed twice per day. […]
Ten G. mellonella larvae (Serum Therapeutics Inc., average weight of 0.265 g) per group were infected using a 10 μL injection in the right second proleg with mid-log phase (OD600 = 0.5)-growing bacteria resuspended and diluted in phosphate-buffered saline (PBS) to achieve the target inoculum of 10^5 colony forming unit (cfu) per larva. […] The viability of the larvae was assessed twice a day up to a total of 72 h postinfection by checking for movement. […]

A. baumannii NCTC 13304 = type: cell-based; conditions: CLSI, cation-adjusted MHB, 18 h at 37 °C, three technical replicates
Method: (§1) VIII. Antimicrobial testing
(§2) Table S2. Minimum inhibitory concentrations (MICs) determined against panel of previously characterized colistin-resistant A. baumannii clinical isolates5
(§3) Strain Relacidine A (3a) Relacidine B (4a) Relacidamide (5) Colistin […]
(§4) aMIC values given in µg/ml.
(§5) All minimum inhibitory concentrations were determined according to Clinical and Standards Laboratory Institute (CLSI) guidelines. Blood agar plates were inoculated from glycerol stocks of the different A. baumannii strains used and then incubated for 16 h at 37 °C . Individually grown colonies were subsequently used to inoculate 5 mL aliquots of TSB that were then incubated at 37 °C. In parallel, the lipopeptide antibiotics DMSO stocks to be assessed were serially diluted with cation-adjusted MHB in polypropylene 96-well plates (50 µL in each well). Colistin sulfate stocks were dissolved in water before being diluted with cation-adjusted MHB. The A. baumannii inoculated TSB aliquots were incubated until an OD600 of around 0.5 was reached. The bacterial suspensions were then diluted with cation-adjusted MHB (2 x 10^5 CFU mL-1) and added to the microplates containing the test compounds (50 µL to each well). The well-plates were sealed with an adhesive membrane and after 18 h of incubation at 37 °C visually inspected for bacterial growth. MIC values reported are based on three technical replicates and defined as the lowest concentration of the compound that prevented visible

A. baumannii BV94 = type: cell-based; conditions: colistin-resistant clinical isolate; CLSI, cation-adjusted MHB, 18 h at 37 °C, three technical replicates
Method: as §1, §2, §3, §4, §5

A. baumannii HUMC1 = type: cell-based; conditions: CLSI, cation-adjusted MHB, 18 h at 37 °C, three technical replicates
Method: as §1, §2, §3, §4, §5

A. baumannii BV173 = type: cell-based; conditions: CLSI, cation-adjusted MHB, 18 h at 37 °C, three technical replicates
Method: as §1, §2, §3, §4, §5

A. baumannii ATCC 17978 = type: cell-based; conditions: CLSI, cation-adjusted MHB, 18 h at 37 °C, three technical replicates
Method: as §1, §2, §3, §4, §5

A. baumannii BV172 = type: cell-based; conditions: CLSI, cation-adjusted MHB, 18 h at 37 °C, three technical replicates
Method: as §1, §2, §3, §4, §5

A. baumannii NCTC 13420 = type: cell-based; conditions: CLSI, cation-adjusted MHB, 18 h at 37 °C, three technical replicates
Method: as §1, §2, §3, §4, §5

A. baumannii BV95 = type: cell-based; conditions: CLSI, cation-adjusted MHB, 18 h at 37 °C, three technical replicates
Method: as §1, §2, §3, §4, §5

A. baumannii LAC-4 = type: cell-based; conditions: CLSI, cation-adjusted MHB, 18 h at 37 °C, three technical replicates
Method: as §1, §2, §3, §4, §5

## colistin [reference compound]
[1]; 100 mg/kg
  survival of G. mellonella larvae after 72 h: none
[1]; 200 mg/kg
  survival of G. mellonella larvae after 72 h: none
A. baumannii NCTC 13304
  MIC A. baumannii NCTC 13304: 1 µg/mL
A. baumannii BV94
  MIC A. baumannii BV94: > 64 µg/mL
A. baumannii HUMC1
  MIC A. baumannii HUMC1: 1 µg/mL
A. baumannii BV173
  MIC A. baumannii BV173: 16 µg/mL
A. baumannii ATCC 17978
  MIC A. baumannii ATCC 17978: 1 µg/mL
A. baumannii BV172
  MIC A. baumannii BV172: > 64 µg/mL
A. baumannii NCTC 13420
  MIC A. baumannii NCTC 13420: 0.5 µg/mL
A. baumannii BV95
  MIC A. baumannii BV95: 32 µg/mL
A. baumannii LAC-4
  MIC A. baumannii LAC-4: 0.5 µg/mL
